In patent US4902791A, “Nitrosourea derivatives, process for their preparation and medicaments containing them” (Sanofi S.A., priority 1983, dated 1990):
Values after ≈ are worked out from the molar mass of the structure shown.

Key:
L 1210 cell = assay: 20% cytotoxic index, trypan blue exclusion, 24 h (TEST N° 1); format: cell-based, mouse; design: key to DOSE CORRESPONDING TO A 20% CYTOTOXIC INDEX: N.S.: not significant; conditions: L1210 cells, 24 hours at 37° C.; for IC20: Mus musculus, read-out: DOSE COR[…] A 20% CYTOTOXIC INDEX, read-out: DOSE CORRESPONDING TO A 20% CYTOTOXIC INDEX
Experimental: (§1) The test used is that of W. J. Durkin et al. Cancer Research 1979, 39, 402-407, modified.
(§2) All the nitrosoureas were dissolved in 70% ethanol in the proportion of 10 mg/ml.
1--Determination of the 20% cytotoxic index
100 μl of an L 1210 cell suspension (10^6 cells per ml) in R P M I 1640 culture medium supplemented with 10% of fetal calf serum and 40 μg/ml of gentamycin, containint various doses of the products to be tested (0 to 100 μg/ml) were incubated 24 hours at 37° C. At the end of this time, the cell viability is determined by the trypan blue exclusion test. The cytotoxic index is defined by the formula: [formula]
The amount of ethanol is the same in the cultures containing the products to be tested and in the control cultures (this amount has no effect either on growth nor on cell viability).
For each product the dose which gives a cytotoxic index of 20% is determined.

L 1210 cells = assay: cytotoxic index after 1 h contact, potential "in vivo" activity (TEST N° 2); format: cell-based, mouse; design: key to CYTOTOXIC INDEX: N.S.: not significant; conditions: for CYTOTOXIC INDEX: 1 hour contact at dose giving 20% index, read after 48 hours; for POTENTIAL "IN VIVO" ACTION: active if cytotoxic index ≥40%
Experimental: as §1, §2
2--Determination of the potential "in vivo" activity
L 1210 cells, under conditions similar to the preceding protocol, were contacted for 1 hour with a dose of the various products tested corresponding to a cytotoxic index equal to 20%. After this time, the cells were placed in culture medium not containing nitrosoureas and incubated at 37° C. After 48 hours, the cytotoxic index was determined.

leucemia L 1210 IGR = assay: "in vivo" activity on leucemia L1210 IGR, 20 mg/kg i.p. days 1, 5, 9; design: species or system mouse; conditions: for percentage of cured mice: surviving more than 60 days
Experimental: Female DBA2 mice were used, about 8 weeks old and weighing about 20 g from the IFFA-CREDO center (les Oncins, 69210 Arbresles)
At day "0", each mouse received intraperitoneally an inoculum of […] in a volume of 0.2 ml.
After tumoral graft, the mice were distributed at random into 21 cages of 5 animals, themselves then distributed, by drawing lots, into 6 experimental series. Within these 6 experimental series, there were constituted a control series of 6 cages and 5 experimental series of 3 cages each, and of which the mice were intended to be treated by the compounds of the invention.
(§3) The protocol was identical for the 3 tumors and the 5 compounds of the invention to be tested.
(§4) As regards the experimental series to be treated, each mouse received, at days 1, 5 and 9, intraperitoneally, a dose of 20 mg/kg of the compound to be tested, in the volume of 0.2 ml of neutralized and sterilized olive oil.
(§5) As regards the control series, each mouse received, intraperitoneally, 0.2 ml of neutralized and sterilized olive oil.
(§6) The results are expressed by the relative increase in survival (T/C×100) calculated from the average survival of the treated animals (T) and that of the control animals (C)
(§7) The mice surviving more than 60 days were considered as cured.
(§8) The figures between parentheses indicate the percentage of cured mice.

Tumor LEWIS 3LL = assay: "in vivo" activity on Lewis tumor, 20 mg/kg i.p. days 1, 5, 9; design: species or system mouse; conditions: for percentage of cured mice: surviving more than 60 days
Experimental: Procedure was under the conditions which have just been described previously with regard to melanoma B16, by injecting the tumor cells, in the proportion of 2×10^6 per mouse, in the volume of 0.2 ml.
as §3, §4, §5, §6, §7, §8

melanoma B16 = assay: "in vivo" activity on melanoma B16, 20 mg/kg i.p. days 1, 5, 9; design: species or system mouse; conditions: for percentage of cured mice: surviving more than 60 days
Experimental: Female C57 B 1/6 mice were used, about 8 weeks old and weighing about 20 g, from the IFFA-CREDO center.
At day "0", each mouse received intraperitoneally an inoculum of 2×10^6 tumor cells in a volume of 0.5 ml.
After tumoral graft, distribution at random was carried out as indicated above, to obtain a control series of 8 cages and 5 experimental series of 4 cages each, and of which the mice were intended to be treated by the compounds of the invention.
as §3, §4, §5, §6, §7, §8

L 1210 USA Tumor = assay: "in vivo" activity on L1210 U.S.A. tumor, 5 mg/kg i.p. days 1, 5, 9; design: species or system mouse
Experimental: The tumor L1210 U.S.A. is more resistant than tumor L1210 IGR.
(§9) The experiments were identical to those described in preceding paragraph 4 but lower doses were used.
There were inoculated into the mice, 10^5 tumor cells of L1210 U.S.A. intraperitoneally in a volume of 0.2 ml.
At days 1, 5 and 9, the compounds of the invention under test were injected intraperitoneally, at a lower dose than that used in the experiment described at 4, that is to say in the proportion of 5 mg/kg.

L 1210 IGR TUMOR = assay: "in vivo" activity on L1210 IGR tumor, 5 mg/kg i.p. days 1, 5, 9; design: species or system mouse
Experimental: as §9
The same protocol was carried out with the tumor L1210 IGR, by inoculating 10^5 tumor cells of L1210 IGR intraperitoneally in the volume of 0.2 ml then, at days 1, 5 and 9, there were injected intraperitoneally 5 mg/kg of each of the compounds to be tested.

leucemia L1210 = assay: effective "in vivo" activity in the mouse, leucemia L1210, compound 2, i.p. days 1, 5, 9
Experimental: The experimentation which is reported below used the compound 2 prepared according to the above example 6 (Ref. IC 81 1183).
The mice (female, average weight 20 g) used were F1 /DBA2 /C57 /B1 (Animal selection and breeding center of the Laboratories of the CNRS, Orleans, La Source).
The mice distributed in cages by drawing lots were inoculated on day "0" with 10^5 leucemia L1210 cells.
The animals were treated with the compound IC 81 1183 intraperitoneally on days 1, 5 and 9.
The suspensions were prepared just before the injection: product 2+neutralized and sterilized olive oil.
The mortality of the animals was observed regularly, the relative increase in the survival (T/C×100) was calculated from the average survival of the treated animals (T) and that of the control animals (C).

L 1210 leucemia = conditions: IMBACH et al; cited from earlier work
[1] = compared with literature curves

Compound | CYTOTOXIC INDEX (L 1210 cells) | relative increase in survival (T/C×100) (leucemia L 1210 IGR) | percentage of cured mice (leucemia L 1210 IGR) [%] | relative increase in survival (T/C×100) (Tumor LEWIS 3LL) | percentage of cured mice (Tumor LEWIS 3LL) [%] | relative increase in survival (T/C×100) (melanoma B16) | percentage of cured mice (melanoma B16) [%] | Average survival ±2 σm (L 1210 USA Tumor) | Median survival (L 1210 USA Tumor) | T/C × 100 (average survival) (L 1210 USA Tumor) | T/C × 100 (median survival) (L 1210 USA Tumor) | Average survival ±2 σm (L 1210 IGR TUMOR) | Median survival (L 1210 IGR TUMOR) | T/C × 100 (average survival) (L 1210 IGR TUMOR) | T/C × 100 (median survival) (L 1210 IGR TUMOR) | IC20 (L 1210 cell) [µg/mL] | POTENTIAL "IN VIVO" ACTION (L 1210 cells) | oncostatic action on L 1210 leucemia (L 1210 leucemia) | further results
CO[C@@H]1C[C@@H](O)[C@H](O)[C@@H](CNC(=O)N(CCCl)N=O)O1 [IC 1350] | N.S. | 362 | 20 | 325 | 40 | 225 | 5 | 10,5 ± 0,74 | 10,25 | 126 | 118 | 14,3 ± 1,23 | 14,25 | 158 | 157 |  |  |  | DOSE CORRESPONDING TO A 20% CYTOTOXIC INDEX (L 1210 cell): N.S.
CO[C@@H]1C[C@@H](NC(=O)N(CCCl)N=O)[C@H](O)[C@@H](C)O1 [IC 1183, Methyl 3-[3-(2-chloroethyl) 3-nitrosoureido] 2,3,6-tridesoxy α-D-arabinohexopyranoside] | 77% | .infin. (The sign 00 indicates that 50% at least of the mice were cured) | 100 | .infin. (The sign 00 indicates that 50% at least of the mice were cured) | 75 | 234 | 5 | 13,5 ± 0,91 | 14,0 | 157 | 161 | 18,7 ± 1,30 | 19 | 207 | 210 | 50 (≈ 169 µM) | + (if the cytotoxic index was equal to or greater than 40%, the product concerned would be active "in vivo" in the mouse) |  | T/C (×100) (leucemia L1210; 1.25 mg/kg i.p. days 1, 5, 9): 118; T/C (×100) (leucemia L1210; 2.50 mg/kg i.p. days 1, 5, 9): 158; T/C (×100) (leucemia L1210; 5 mg/kg i.p. days 1, 5, 9): 170; T/C (×100) (leucemia L1210; 10 mg/kg i.p. days 1, 5, 9): 220; T/C (×100) (leucemia L1210; 20 mg/kg i.p. days 1, 5, 9): 00 (T/C=00: for definition: more than 50% of the treated animals were finally cured); T/C (×100) (leucemia L1210; 40 mg/kg i.p. days 1, 5, 9): 00 (T/C=00: for definition: more than 50% of the treated animals were finally cured); T/C (×100) (leucemia L1210; 50 mg/kg i.p. days 1, 5, 9): 100; T/C above 40 mg/kg (leucemia L1210; after 40 mg/kg, rise in toxicity): sudden drop of the T/C; curve of efficiency vs CCNU and Me CCNU (leucemia L1210; [1]): very distinctly higher than those obtained by CCNU and Me CCNU; curve of efficiency vs RFCNU and RPCNU (leucemia L1210; [1]): as good as that obtained with RFCNU and RPCNU; animals cured finally (leucemia L1210; doses of 20 and 40 mg/kg): all the animals at doses of 20 and 40 mg/kg were cured finally; Toxicity (leucemia L1210; ≥60 mg/kg i.p. days 1, 5, 9): Toxicity
CC(=O)O[C@H]1[C@H](OC(C)=O)COC(NC(=O)N(CCCl)N=O)[C@@H]1OC(C)=O (some centres unmarked) [XPCNU, 1-(2-chloro-ethyl) 3-(xylopyranosyl 2',3',4'-triacetate)-nitrosourea] |  |  |  |  |  |  |  |  |  |  |  |  |  |  |  |  |  | oncostatic action | 
CO[C@@H]1C[C@@H](N(C)C(=O)N(CCCl)N=O)[C@H](O)[C@@H](C)O1 [IC 1375, Methyl 3-[3-(2-chloroethyl) 1-methyl 3-nitrosoureido] 2,3,6-tridesoxy α-D-arabinohexopyranoside] | 69% |  |  |  |  |  |  |  |  |  |  |  |  |  |  | 60 (≈ 194 µM) | + (if the cytotoxic index was equal to or greater than 40%, the product concerned would be active "in vivo" in the mouse) |  | 
CO[C@@H]1C[C@@H](NC(=O)N(CCCl)N=O)[C@H](OC)[C@@H](C)O1 [IC 1373, Methyl 3-[3-(2-chloroethyl) 3-nitrosoureido] 2,3,6-tridesoxy 4-O-methyl alpha-D-arabinohexopyranoside] | 68% | .infin. (The sign 00 indicates that 50% at least of the mice were cured) | 100 | 316 | 30 | 165 | 0 | 10,6 ± 0,44 | 10,6 | 123 | 122 | 12,9 ± 0,55 | 13,1 | 142 | 145 | 80 (≈ 258 µM) | + (if the cytotoxic index was equal to or greater than 40%, the product concerned would be active "in vivo" in the mouse) |  | 
CC(=O)OC[C@H]1OC(OC(C)=O)[C@H](NC(=O)N(CCCl)N=O)[C@@H](OC(C)=O)[C@@H]1OC(C)=O (some centres unmarked) [GCNU, 3-(2-chloro-1-ethyl-2'-desoxy-glucopyranosyl-14,3',4",6'-tetracetate)nitrosourea] |  |  |  |  |  |  |  |  |  |  |  |  |  |  |  |  |  | oncostatic action | 
CC1(C)O[C@@H]2[C@@H](COC(=O)c3ccc([N+](=O)[O-])cc3)OC(NC(=O)N(CCCl)N=O)[C@@H]2O1 (some centres unmarked) [RFCNU, 1-(2-chloro-ethyl)3-(ribofuranosyl-2',3'-isopropylidene-5-paranitro benzoate)-nitrosourea] |  |  |  |  |  |  |  |  |  |  |  |  |  |  |  |  |  | oncostatic action | 
